Data set [1] has as its system NFAT. In words: NFAT reporter (secreted alkaline phosphatase) after cross-linking chimeric receptor TAC/TAC/Z with anti-TAC mAb in TAg Jurkat cells. The data set is classed as cell-based, human. Particulars: addition of 1 ng/ml FK506; TTZ receptor, bound anti-TAC mAb. From the text: The plasmid pSXNeo/IL2 (IL2-SX) (FIG. 1), which contains the placental secreted alkaline phosphatase gene under the control of human IL-2 promoter (−325 to +47; MCB(86) 6, 3042), and related plasmid variants (i.e. NFAT-SX, NF B-SX, OAP/Oct1-SX, and AP-1-SX) in which the reporter gene is under the transcriptional control of the minimal IL-2 promoter (−325 to −294 and -72 to −47) combined with synthetic oligomers containing various promoter elements (i.e. NFAT, NKB, OAP/Oct-1, and AP1, respectively), were made by three piece ligations of 1) pPL/SEAP (Berger, et al., Gene (1988) 66, 1) cut with SspI and HindIII; 2) pSV2/Neo (Southern and Berg, J. Mol. Appl. Genet. (1982) 1, 332) cut with NdeI, blunted with Klenow, then cut with Pvul; and 3) various promoter-containing plasmids (i.e. NFAT-CD8, B-CD8, cx121acZ-Oct-1, AP1-LUCIF3H, or cx151L2) described below) cut with PvuI and HindIII, NFAT-CD8 contains 3 copies of the NFAT-binding site (−286 to […]; Genes and Dev. (1990) 4, 1823) and cx12lacZ-Oct contains 4 copies of the OAP/Oct-1(ARRE-1) binding site (MCB, (1988) 8, 1715) from the human IL-2 enhancer; B-CD8 contains 3 copies of the NFB binding site from the murine light chain (EMBO (1990) 9, 4425) and AP1-LUCIF3H contains 5 copies of the AP-1 site (5′-TGA-[…]-3′ [SEQ ID NO:3]) from the metallothionen promoter. […]

The target of data set [2] is T1, MZF3E (Mus musculus, UniProt P24161).
T1 construct: expressed in transfected cells
In words: NFAT-SEAP reporter via myristoylated chimeric CD3/FKBP12 (MZF3E) receptor in Jurkat T cells. The data set is classed as cell-based, human.

Data set [3] can be described thus: Immunosuppression / toxicity in cell culture. The data set is classed as cell-based.
Data set [4] relates to MZF3Eflu / MZF3Eflag. In words: Coimmunoprecipitation of epitope-tagged chimeras (anti-Flag agarose) in Jurkat T cells. The data set is classed as cell-based, human.
The target of data set [5] is T1, MZF3E. Kind of data set: Protein-tyrosine phosphorylation and kinase recruitment in Jurkat cells stably transfected with MZF3E. It counts as cell-based, human.
Experimental: Tyrosine phosphorylation after treatment of cells with either anti-CD3 MAb or FK1012 was detected using monoclonal alpha-phosphotyrosine antibodies. Whole cell lysates were analysed at varying times after stimulation.
Data set [6] has as its system GF2E or GF3E with NF3V1E (G5E4TCAT reporter). In words: Transcriptional induction: CAT activity in Jurkat TAg cells transfected with GAL4-FKBP and FKBP-VP16 chimeras. Particulars: 1 μM ligand, 12 hours; samples 5 (GF2E, NF3V1E) and 6 (GF3E, NF3V1E) in the presence of ligand. The data set is classed as cell-based, human. As for the experimental part:
Jurkat TAg cells were transfected with the indicated constructs (5 μg of each construct) by electroporation (960 μF, 250 v). After 24 hours, the cells were resuspended in fresh media and aliquoted. […] After 12 hours, the cells were washed and cellular extracts were prepared by repeated freeze-thaw. Chloramphenicol acetyltransferase (CAT) activity was measured by standard protocols. Molecular Cloning: A Laboratory Manual, Sambrook et al. eds. (1989) CSH Laboratory, pp. 16-59 ff. […]

Data set [7] concerns TAg-Jurkat cells. Kind of data set: Inhibitory activity of drugs on ionomycin/PMA-stimulated TAg-Jurkat cells (β-galactosidase, MUG fluorescence). The data set is classed as cell-based, human. As for the experimental part: Ionomycin (1 μm) and PMA (25 ng/ml) were added to 10^5 TAg-Jurkat cells. In addition, titrations of the various drugs were added. After 5 hours the cells were lysed in mild detergent (i.e. Triton X-100) and the extracts were incubated with the β-galactosidase substrate, MUG (methyl galactosidyl umbelliferone) for 1 hour. A glycine/EDTA stop buffer was added and the extracts assayed for fluorescence. Each data point obtained was the average of two samples and the experiment was performed several times with similar results.

T1 sequence (P24161 with tags, fused parts or gaps limits assumed): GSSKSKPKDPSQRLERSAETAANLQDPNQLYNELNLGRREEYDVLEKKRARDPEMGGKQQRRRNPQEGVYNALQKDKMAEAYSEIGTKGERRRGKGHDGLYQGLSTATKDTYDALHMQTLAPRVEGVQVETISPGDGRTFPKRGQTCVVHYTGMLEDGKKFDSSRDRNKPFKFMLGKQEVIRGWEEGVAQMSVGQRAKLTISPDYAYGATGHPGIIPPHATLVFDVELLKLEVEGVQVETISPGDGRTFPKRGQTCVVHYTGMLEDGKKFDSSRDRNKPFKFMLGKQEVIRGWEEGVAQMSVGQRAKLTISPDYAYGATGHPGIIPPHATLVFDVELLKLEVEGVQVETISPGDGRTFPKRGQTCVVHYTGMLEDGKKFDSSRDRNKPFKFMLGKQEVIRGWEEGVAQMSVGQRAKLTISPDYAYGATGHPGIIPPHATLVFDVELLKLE
Sequence of MZF3Eflu / MZF3Eflag (P62942 2-108 limits assumed): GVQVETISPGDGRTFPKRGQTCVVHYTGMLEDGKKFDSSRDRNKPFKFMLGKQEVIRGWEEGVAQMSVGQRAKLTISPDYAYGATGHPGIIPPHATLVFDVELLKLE
Sequence of GF2E or GF3E with NF3V1E (G5E4TCAT reporter) (P62942 2-108 limits assumed): as above

With `C=CC[C@@H]1/C=C(\C)C[C@H](C)C[C@H](OC)[C@H]2O[C@@](O)(C(=O)C(=O)N3CCCC[C@H]3C(=O)O[C@H](/C(C)=C/[C@@H]3CC[C@@H](O)[C@H](OC)C3)[C@H](C)[C@@H](O)CC1=O)[C@H](C)C[C@@H]2OC` [FK506, reference compound], in data set [1], the “alkaline phosphatase reporter activity due to NFAT” value is “dropped all activity due to NFAT to background levels”. Moreover, in data set [2] (addition of 1 ng/ml FK506), the “FK1012B stimulation of NFAT reporter” value is listed as “dropped all stimulations to near background levels”.
Take `CO[C@H]1C[C@@H](C)C/C(C)=C/[C@@H](CCOC(=O)NCc2ccccc2)C(=O)C[C@H](O)[C@@H](C)[C@@H](/C(C)=C/[C@@H]2CC[C@@H](O)[C@H](OC)C2)OC(=O)[C@@H]2CCCCN2C(=O)C(=O)[C@]2(O)O[C@H]1[C@@H](OC)C[C@H]2C` [FK506-M]: the “termination of FK1012-induced signaling (deaggregation)” value in data set [2] is “FK1012-induced signaling can be terminated”. In addition, in data set [3], the toxicity entry is “nontoxic”.
As for “FK1012-A (p-xylylenediamine bridge) [FK1012A]”, the “dimerization of FKBP monomer constructs MZF1Eflu and MZF1Eflag” value in data set [4] is listed as “also dimerized by FK1012A”. In addition, the “coimmunoprecipitation of MZF3Eflu with MZF3Eflag” value in data set [4] (1 μM, Jurkat T cells coexpressing both chimeras) is “MZF3Eflag interacts with MZF3Eflu and is coimmunoprecipitated”. In data set [5], the “recruitment of kinase activity to the zeta-chain (in vitro kinase assay after immunoprecipitation)” value is listed as “resulted in the recruitment of kinase activity to the zeta-chain”. For the same compound, the CAT activity entry in data set [6] is “CAT activity present as expected”.
For “FK1012-B (diaminodecane-1,10 bridge) [FK1012B]”, in data set [7] (control experiment), the “stimulation by the compound itself” value is listed as “not stimulatory by itself”. The mitogen activity entry in data set [7] (ionomycin 1 μm + PMA 25 ng/ml, highest concentration 5 μg/ml) is on record as “appears to augment mitogen activity slightly”.

The values above are taken from patent US8084596B2, “Regulated apoptosis” (The Board of Trustees of the Leland Stanford Junior …, priority 1993, dated 2011).
